For orientation: Km means the concentration of substrate that gives half-maximal velocity.

A short description of series [1]: Drug excretion in human urine. The series is classed as ADME. Particulars: read-out: Drug excretion.
Series [2] concerns the target T1, UDP-glucuronosyltransferase 2B17 (Homo sapiens, UniProt O75795).
T1 sequence (O75795 whole entry): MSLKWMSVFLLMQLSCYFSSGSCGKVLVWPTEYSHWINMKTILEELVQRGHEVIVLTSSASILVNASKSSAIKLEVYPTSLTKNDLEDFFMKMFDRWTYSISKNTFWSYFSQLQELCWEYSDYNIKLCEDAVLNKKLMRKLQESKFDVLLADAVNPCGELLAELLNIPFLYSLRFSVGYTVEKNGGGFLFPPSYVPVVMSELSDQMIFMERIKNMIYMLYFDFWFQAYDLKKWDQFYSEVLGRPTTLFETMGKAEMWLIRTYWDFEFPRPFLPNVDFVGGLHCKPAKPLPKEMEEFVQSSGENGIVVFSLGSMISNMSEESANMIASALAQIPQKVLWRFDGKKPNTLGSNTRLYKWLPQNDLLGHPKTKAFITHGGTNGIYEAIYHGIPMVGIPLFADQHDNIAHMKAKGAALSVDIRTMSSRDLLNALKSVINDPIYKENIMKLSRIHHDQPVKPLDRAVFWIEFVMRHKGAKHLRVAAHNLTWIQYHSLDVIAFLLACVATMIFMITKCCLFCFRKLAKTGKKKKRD
Kind of series: Drug metabolism assessed as recombinant human UGT2B17 assessed as N-glucuronidation at 100 uM incubated for 60 mins by LC-MS/MS analysis. Type of series: ADME. Particulars: recombinant enzyme, 1 h.

Series [3] addresses T2, UDP-glucuronosyltransferase 2B4 (Homo sapiens, UniProt P06133).
T2 sequence (P06133 whole entry): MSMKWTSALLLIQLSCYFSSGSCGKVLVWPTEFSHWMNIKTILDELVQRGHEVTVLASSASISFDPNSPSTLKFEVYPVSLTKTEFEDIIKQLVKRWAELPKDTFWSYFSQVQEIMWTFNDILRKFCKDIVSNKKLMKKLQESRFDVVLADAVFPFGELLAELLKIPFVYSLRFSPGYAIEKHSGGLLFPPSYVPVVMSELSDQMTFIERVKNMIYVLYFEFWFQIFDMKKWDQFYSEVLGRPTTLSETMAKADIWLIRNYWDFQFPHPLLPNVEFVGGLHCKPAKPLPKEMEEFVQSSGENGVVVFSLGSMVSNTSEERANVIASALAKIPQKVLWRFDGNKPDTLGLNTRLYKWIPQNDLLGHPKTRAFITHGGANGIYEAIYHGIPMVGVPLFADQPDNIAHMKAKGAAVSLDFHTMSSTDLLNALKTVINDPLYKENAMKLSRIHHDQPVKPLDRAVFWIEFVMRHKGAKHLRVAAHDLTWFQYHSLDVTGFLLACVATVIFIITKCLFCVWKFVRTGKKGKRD
Put plainly: Drug metabolism assessed as recombinant human UGT2B4 assessed as N-glucuronidation at 100 uM incubated for 60 mins by LC-MS/MS analysis. Particulars: recombinant enzyme, 1 h. The series is classed as ADME.

The target of a further series is T3, UGT2B7 (Homo sapiens, UniProt P16662).
T3 sequence (P16662 whole entry): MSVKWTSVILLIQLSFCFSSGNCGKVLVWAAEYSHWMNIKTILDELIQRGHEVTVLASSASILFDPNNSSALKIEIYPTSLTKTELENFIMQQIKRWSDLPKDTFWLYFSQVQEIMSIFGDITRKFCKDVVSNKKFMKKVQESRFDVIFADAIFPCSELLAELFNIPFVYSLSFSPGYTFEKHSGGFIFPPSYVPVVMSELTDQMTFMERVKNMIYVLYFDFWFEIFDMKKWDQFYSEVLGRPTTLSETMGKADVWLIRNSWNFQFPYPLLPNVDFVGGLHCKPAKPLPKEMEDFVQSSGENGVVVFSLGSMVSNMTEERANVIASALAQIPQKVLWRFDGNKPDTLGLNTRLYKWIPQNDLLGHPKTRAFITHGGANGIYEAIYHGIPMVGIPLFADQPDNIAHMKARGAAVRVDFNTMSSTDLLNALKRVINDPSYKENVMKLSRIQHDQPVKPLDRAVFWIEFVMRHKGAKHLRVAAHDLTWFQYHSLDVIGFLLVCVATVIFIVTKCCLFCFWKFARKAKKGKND
Kind of series: Drug metabolism assessed as recombinant human UGT2B7 assessed as O-glucuronidation at 10 to 400 uM incubated for 60 mins by LC-MS/MS analysis.

Series [4] has as its target T4, UDP-glucuronosyltransferase 1A10 (Homo sapiens, UniProt Q9HAW8).
T4 sequence (Q9HAW8 whole entry): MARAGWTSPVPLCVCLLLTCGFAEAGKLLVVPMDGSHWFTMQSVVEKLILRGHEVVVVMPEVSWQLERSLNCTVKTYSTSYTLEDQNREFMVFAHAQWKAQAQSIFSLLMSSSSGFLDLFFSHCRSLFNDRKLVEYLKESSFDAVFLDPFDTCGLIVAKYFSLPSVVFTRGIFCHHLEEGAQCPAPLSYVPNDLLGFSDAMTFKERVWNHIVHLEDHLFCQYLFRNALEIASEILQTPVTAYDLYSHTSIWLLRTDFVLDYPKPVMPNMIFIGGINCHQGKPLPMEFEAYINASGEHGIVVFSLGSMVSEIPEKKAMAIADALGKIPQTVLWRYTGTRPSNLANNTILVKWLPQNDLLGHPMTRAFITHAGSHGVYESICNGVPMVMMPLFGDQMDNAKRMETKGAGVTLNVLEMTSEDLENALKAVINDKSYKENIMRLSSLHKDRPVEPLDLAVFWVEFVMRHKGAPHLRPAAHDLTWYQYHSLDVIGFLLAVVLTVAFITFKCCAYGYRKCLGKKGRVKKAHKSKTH
Kind of series: Drug metabolism assessed as recombinant human UGT1A10 assessed as O-glucuronidation at 100 uM incubated for 60 mins by LC-MS/MS analysis. Type of series: ADME. Particulars: recombinant enzyme, 1 h.

Series [5] concerns the target T5, UDP-glucuronosyltransferase 1A8 (Homo sapiens, UniProt Q9HAW9).
T5 sequence (Q9HAW9 whole entry): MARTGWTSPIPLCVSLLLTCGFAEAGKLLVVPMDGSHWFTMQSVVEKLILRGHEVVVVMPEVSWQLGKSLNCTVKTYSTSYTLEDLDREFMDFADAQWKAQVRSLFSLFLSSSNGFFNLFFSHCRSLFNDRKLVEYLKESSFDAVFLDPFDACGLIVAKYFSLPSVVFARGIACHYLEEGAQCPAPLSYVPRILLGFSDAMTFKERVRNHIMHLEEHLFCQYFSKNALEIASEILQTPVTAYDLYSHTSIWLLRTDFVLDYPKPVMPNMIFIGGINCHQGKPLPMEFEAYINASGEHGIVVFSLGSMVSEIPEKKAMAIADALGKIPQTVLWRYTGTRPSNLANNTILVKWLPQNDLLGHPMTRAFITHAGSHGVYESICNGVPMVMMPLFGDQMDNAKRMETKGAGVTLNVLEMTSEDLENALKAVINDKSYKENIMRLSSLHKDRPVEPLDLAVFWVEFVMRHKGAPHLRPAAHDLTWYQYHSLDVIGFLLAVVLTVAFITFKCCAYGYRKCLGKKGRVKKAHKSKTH
Put plainly: Drug metabolism assessed as recombinant human UGT1A8 assessed as N-glucuronidation at 100 uM incubated for 60 mins by LC-MS/MS analysis. Type of series: ADME. Particulars: recombinant enzyme, 1 h.

Series [6] has as its target T1, UDP-glucuronosyltransferase 2B17. Put plainly: Drug metabolism assessed as recombinant human UGT2B17 assessed as O-glucuronidation at 100 uM incubated for 60 mins by LC-MS/MS analysis. Particulars: recombinant enzyme, 1 h. Type of series: ADME.

As for `O=C(CCCN1CCC(O)(c2ccc(Cl)cc2)CC1)c1ccc(F)cc1` [HALOPERIDOL], the dose excreted in series [1] stood at 1%. Besides, the Drug metabolism entry in series [2], in series [3], in series [4], in series [5] and in series [6] was “metabolite_not_detected” each time. In addition, the Km at 1 h, 400 µM at UGT2B7 is 45 µM.
